Measurements as given in paper PMC11277489, “Novel Piperazine Derivatives of Vindoline as Anticancer Agents” (International Journal of Molecular Sciences, 2024).

Tests used:
SF-268 = assay: NCI60 five-dose screen, CNS Cancer; assay type: cell-based; conditions: Homo sapiens; SF-268, CNS Cancer; five-dose screen; read-out: GI50
MDA-MB-231/ATCC = assay: NCI60 one-dose screen (10 μM), Breast Cancer; assay type: cell-based, human; conditions: Homo sapiens; 10 μM; MDA-MB-231/ATCC, Breast Cancer; read-out: Growth percent rate
A549/ATCC = assay: NCI60 five-dose screen, Non-small Cell Lung Cancer; assay type: cell-based; conditions: Homo sapiens; A549/ATCC, Non-small Cell Lung Cancer; five-dose screen; read-out: GI50
LOX IMVI = assay: NCI60 five-dose screen, Melanoma; assay type: cell-based; conditions: Homo sapiens, Melanoma, five-dose screen, read-out: GI50
OVCAR-5 [1] = assay: NCI60 one-dose screen (10 μM), Ovarian Cancer; assay type: cell-based; conditions: Homo sapiens; 10 μM; OVCAR-5, Ovarian Cancer; read-out: Growth percent rate
OVCAR-3 = assay: NCI60 five-dose screen, Ovarian Cancer; assay type: cell-based; conditions: Homo sapiens; OVCAR-3, Ovarian Cancer; five-dose screen; read-out: GI50
M14 [2] = assay: NCI60 five-dose screen, Melanoma; assay type: cell-based; conditions: Homo sapiens; M14, Melanoma; five-dose screen; read-out: GI50
IGROV1 = assay: NCI60 five-dose screen, Ovarian Cancer; assay type: cell-based; conditions: Homo sapiens, IGROV-1; IGROV1, Ovarian Cancer; five-dose screen; read-out: GI50
OVCAR-4 = assay: NCI60 five-dose screen, Ovarian Cancer; assay type: cell-based; conditions: Homo sapiens; OVCAR-4, Ovarian Cancer; five-dose screen; read-out: GI50
K-562 = assay: NCI60 five-dose screen, Leukemia; assay type: cell-based; conditions: Homo sapiens, K562; K-562, Leukemia; five-dose screen; read-out: GI50
OVCAR-5 [3] = assay: NCI60 five-dose screen, Ovarian Cancer; assay type: cell-based; conditions: Homo sapiens; OVCAR-5, Ovarian Cancer; five-dose screen; read-out: GI50
SR [4] = assay: NCI60 five-dose screen, Leukemia; assay type: cell-based; conditions: Homo sapiens, Leukemia, five-dose screen, read-out: GI50
PC-3 [5] = assay: NCI60 five-dose screen, Prostate Cancer; assay type: cell-based; conditions: Homo sapiens; PC-3, Prostate Cancer; five-dose screen; read-out: GI50
MDA-MB231ATCC = assay: NCI60 five-dose screen, Breast Cancer; assay type: cell-based; conditions: Homo sapiens, MDA-MB-231; MDA-MB231ATCC, Breast Cancer; five-dose screen; read-out: GI50
MDA-MB-468 [6] = assay: NCI60 one-dose screen (10 μM), Breast Cancer; assay type: cell-based; conditions: Homo sapiens; 10 μM; MDA-MB-468, Breast Cancer; read-out: Growth percent rate
HCT-15 = assay: NCI60 five-dose screen, Colon Cancer; assay type: cell-based; conditions: Homo sapiens; HCT-15, Colon Cancer; five-dose screen; read-out: GI50
T-47D [7] = assay: NCI60 one-dose screen (10 μM), Breast Cancer; assay type: cell-based; conditions: Homo sapiens, T47D; 10 μM; T-47D, Breast Cancer; read-out: Growth percent rate
NCI/ADR-RES [8] = assay: NCI60 one-dose screen (10 μM), Ovarian Cancer; assay type: cell-based; conditions: Homo sapiens, 10 μM, Ovarian Cancer, read-out: Growth percent rate
TK-10 = assay: NCI60 five-dose screen, Renal Cancer; assay type: cell-based; conditions: Homo sapiens; TK-10, Renal Cancer; five-dose screen; read-out: GI50
SNB-19 = assay: NCI60 one-dose screen (10 μM), CNS Cancer; assay type: cell-based; conditions: Homo sapiens; 10 μM; SNB-19, CNS Cancer; read-out: Growth percent rate
UACC-62 = assay: NCI60 one-dose screen (10 μM), Melanoma; assay type: cell-based; conditions: Homo sapiens; 10 μM; UACC-62, Melanoma; read-out: Growth percent rate
HS 578T = assay: NCI60 five-dose screen, Breast Cancer; assay type: cell-based; conditions: Homo sapiens; HS 578T, Breast Cancer; five-dose screen; read-out: GI50
HL-60(TB) = assay: NCI60 five-dose screen, Leukemia; assay type: cell-based; conditions: Homo sapiens; HL-60(TB), Leukemia; five-dose screen; read-out: GI50
U251 = assay: NCI60 five-dose screen, CNS Cancer; assay type: cell-based; conditions: Homo sapiens, U-251; U251, CNS Cancer; five-dose screen; read-out: GI50
T-47D [9] = assay: NCI60 five-dose screen, Breast Cancer; assay type: cell-based; conditions: Homo sapiens, T47D; T-47D, Breast Cancer; five-dose screen; read-out: GI50
HOP-92 = assay: NCI60 one-dose screen (10 μM), Non-small Cell Lung Cancer; assay type: cell-based; conditions: Homo sapiens; 10 μM; HOP-92, Non-small Cell Lung Cancer; read-out: Growth percent rate
NCI/ADR-RES [10] = assay: NCI60 five-dose screen, Ovarian Cancer; assay type: cell-based; conditions: Homo sapiens, Ovarian Cancer, five-dose screen, read-out: GI50
HT29 = assay: NCI60 one-dose screen (10 μM), Colon Cancer; assay type: cell-based; conditions: Homo sapiens, HT-29; 10 μM; HT29, Colon Cancer; read-out: Growth percent rate
ACHN = assay: NCI60 five-dose screen, Renal Cancer; assay type: cell-based; conditions: Homo sapiens, Renal Cancer, five-dose screen, read-out: GI50
NCI-H460 = assay: NCI60 five-dose screen, Non-small Cell Lung Cancer; assay type: cell-based; conditions: Homo sapiens; NCI-H460, Non-small Cell Lung Cancer; five-dose screen; read-out: GI50
SW-620 = assay: NCI60 five-dose screen, Colon Cancer; assay type: cell-based; conditions: Homo sapiens; SW-620, Colon Cancer; five-dose screen; read-out: GI50
HCC-2998 [11] = assay: NCI60 five-dose screen, Colon Cancer; assay type: cell-based; conditions: Homo sapiens; HCC-2998, Colon Cancer; five-dose screen; read-out: GI50
MDA-MB-435 = assay: NCI60 five-dose screen, Melanoma; assay type: cell-based; conditions: Homo sapiens; MDA-MB-435, Melanoma; five-dose screen; read-out: GI50
HCC-2998 [12] = assay: NCI60 one-dose screen (10 μM), Colon Cancer; assay type: cell-based; conditions: Homo sapiens; 10 μM; HCC-2998, Colon Cancer; read-out: Growth percent rate
BT-549 [13] = assay: NCI60 five-dose screen, Breast Cancer; assay type: cell-based; conditions: Homo sapiens; BT-549, Breast Cancer; five-dose screen; read-out: GI50
M14 [14] = assay: NCI60 one-dose screen (10 μM), Melanoma; assay type: cell-based; conditions: Homo sapiens; 10 μM; M14, Melanoma; read-out: Growth percent rate
SK-MEL-5 [15] = assay: NCI60 five-dose screen, Melanoma; assay type: cell-based; conditions: Homo sapiens; SK-MEL-5, Melanoma; five-dose screen; read-out: GI50
PC-3 [16] = assay: NCI60 one-dose screen (10 μM), Prostate Cancer; assay type: cell-based; conditions: Homo sapiens; 10 μM; PC-3, Prostate Cancer; read-out: Growth percent rate
SK-OV-3 = assay: NCI60 one-dose screen (10 μM), Ovarian Cancer; assay type: cell-based; conditions: Homo sapiens; 10 μM; SK-OV-3, Ovarian Cancer; read-out: Growth percent rate
MDA-MB-468 [17] = assay: NCI60 five-dose screen, Breast Cancer; assay type: cell-based; conditions: Homo sapiens; MDA-MB-468, Breast Cancer; five-dose screen; read-out: GI50
SK-MEL-5 [18] = assay: NCI60 one-dose screen (10 μM), Melanoma; assay type: cell-based, human; conditions: for growth percent rate: 10 μM one-dose, SK-MEL-5 melanoma, negative = lethality; for activity at 10 µM: Homo sapiens, SK-MEL-5, Melanoma, read-out: Growth percent rate
UO-31 = assay: NCI60 one-dose screen (10 μM), Renal Cancer; assay type: cell-based; conditions: Homo sapiens; 10 μM; UO-31, Renal Cancer; read-out: Growth percent rate
BT-549 [19] = assay: NCI60 one-dose screen (10 μM), Breast Cancer; assay type: cell-based; conditions: Homo sapiens; 10 μM; BT-549, Breast Cancer; read-out: Growth percent rate
DU-145 = assay: NCI60 one-dose screen (10 μM), Prostate Cancer; assay type: cell-based; conditions: Homo sapiens; 10 μM; DU-145, Prostate Cancer; read-out: Growth percent rate
SR [20] = assay: NCI60 one-dose screen (10 μM), Leukemia; assay type: cell-based; conditions: Homo sapiens, 10 μM, Leukemia, read-out: Growth percent rate
NCI-H226 = assay: NCI60 one-dose screen (10 μM), Non-small Cell Lung Cancer; assay type: cell-based; conditions: Homo sapiens; 10 μM; NCI-H226, Non-small Cell Lung Cancer; read-out: Growth percent rate

CC[C@]12C=CCN3CC[C@@]4(c5ccc(OC)cc5N(C)[C@H]4[C@@](O)(C(=O)OC)[C@@H]1OC(=O)CCCN1CCN(c4ccc(C(F)(F)F)cc4)CC1)[C@@H]32 [Compound 22]
GI50 (SF-268): 3630 nM | activity at 10 µM (MDA-MB-231/ATCC): -67.4% | GI50 (A549/ATCC): 2950 nM | GI50 (LOX IMVI): 1700 nM | activity at 10 µM (OVCAR-5 [1]): -31.1% | GI50 (OVCAR-3): 2450 nM | GI50 (M14 [2]): 1860 nM | GI50 (IGROV1): 2000 nM | GI50 (OVCAR-4): 3800 nM | GI50 (K-562): 1410 nM | GI50 (OVCAR-5 [3]): 4070 nM | GI50 (SR [4]): 1700 nM | GI50 (PC-3 [5]): 2450 nM | GI50 (MDA-MB231ATCC): 2820 nM | activity at 10 µM (MDA-MB-468 [6]): -83.4% | GI50 (HCT-15): 1820 nM | activity at 10 µM (T-47D [7]): -11.4% | activity at 10 µM (NCI/ADR-RES [8]): -10.9% | GI50 (TK-10): 2880 nM | activity at 10 µM (SNB-19): -3.08% | activity at 10 µM (UACC-62): -90.9% | GI50 (HS 578T): 2820 nM | GI50 (HL-60(TB)): 1660 nM | GI50 (U251): 2240 nM | GI50 (T-47D [9]): 3020 nM | activity at 10 µM (HOP-92): -30.9% | GI50 (NCI/ADR-RES [10]): 2290 nM | activity at 10 µM (HT29): -70.3% | GI50 (ACHN): 3240 nM | GI50 (NCI-H460): 1860 nM | GI50 (SW-620): 2950 nM | GI50 (HCC-2998 [11]): 1820 nM | GI50 (MDA-MB-435): 1700 nM | activity at 10 µM (HCC-2998 [12]): -82.3% | GI50 (BT-549 [13]): 3020 nM | activity at 10 µM (M14 [14]): -75.5% | GI50 (SK-MEL-5 [15]): 1700 nM | activity at 10 µM (PC-3 [16]): -25.4% | activity at 10 µM (SK-OV-3): 23.6% | GI50 (MDA-MB-468 [17]): 1380 nM | growth percent rate (SK-MEL-5 [18]): −98.54% | activity at 10 µM (SK-MEL-5 [18]): -98.5% | activity at 10 µM (UO-31): 2.06% | activity at 10 µM (BT-549 [19]): -69.1% | activity at 10 µM (DU-145): -38.8% | activity at 10 µM (SR [20]): 14.2% | activity at 10 µM (NCI-H226): -50.7%

CC[C@]12C=CCN3CC[C@@]4(c5ccc(OC)cc5N(C)[C@H]4[C@@](O)(C(=O)OC)[C@@H]1OC(=O)CCC(=O)N1CCN(c4ccc(C(F)(F)F)cc4)CC1)[C@@H]32 [Compound 28]
GI50 (SF-268): 4070 nM | activity at 10 µM (MDA-MB-231/ATCC): -47% | GI50 (A549/ATCC): 2750 nM | GI50 (LOX IMVI): 3240 nM | activity at 10 µM (OVCAR-5 [1]): 2.55% | GI50 (OVCAR-3): 3720 nM | GI50 (M14 [2]): 2400 nM | GI50 (IGROV1): 3310 nM | GI50 (OVCAR-4): 4270 nM | GI50 (K-562): 1700 nM | GI50 (OVCAR-5 [3]): 5250 nM | GI50 (SR [4]): 2290 nM | GI50 (PC-3 [5]): 2450 nM | GI50 (MDA-MB231ATCC): 4170 nM | activity at 10 µM (MDA-MB-468 [6]): -42.8% | GI50 (HCT-15): 3160 nM | activity at 10 µM (T-47D [7]): 38.4% | activity at 10 µM (NCI/ADR-RES [8]): 5.44% | GI50 (TK-10): 4070 nM | activity at 10 µM (SNB-19): 16.2% | activity at 10 µM (UACC-62): -75.8% | GI50 (HS 578T): 4790 nM | GI50 (HL-60(TB)): 1450 nM | GI50 (U251): 3310 nM | GI50 (T-47D [9]): 3550 nM | activity at 10 µM (HOP-92): -3.33% | GI50 (NCI/ADR-RES [10]): 3310 nM | activity at 10 µM (HT29): -50.4% | GI50 (ACHN): 3800 nM | GI50 (NCI-H460): 3310 nM | GI50 (SW-620): 3980 nM | GI50 (HCC-2998 [11]): 2400 nM | GI50 (MDA-MB-435): 3890 nM | activity at 10 µM (HCC-2998 [12]): -75.2% | GI50 (BT-549 [13]): 3310 nM | activity at 10 µM (M14 [14]): -66.8% | GI50 (SK-MEL-5 [15]): 3240 nM | activity at 10 µM (PC-3 [16]): 3.75% | activity at 10 µM (SK-OV-3): 37.5% | GI50 (MDA-MB-468 [17]): 1860 nM | growth percent rate (SK-MEL-5 [18]): −92.46% | activity at 10 µM (SK-MEL-5 [18]): -92.5% | activity at 10 µM (UO-31): 10.3% | activity at 10 µM (BT-549 [19]): 12.9% | activity at 10 µM (DU-145): 15.4% | activity at 10 µM (SR [20]): 18.4% | activity at 10 µM (NCI-H226): 14.9%
